Measurements as given in patent publication US20230051589A1, “COMPOUNDS AND COMPOSITIONS FOR TREATING CONDITIONS ASSOCIATED WITH NLRP ACTIVITY” (Novartis AG, priority 2018, published 2023).

tested on: IL-1β production in PMA-differentiated THP-1 cells; assay: IL-1β production in PMA-differentiated THP-1 cells stimulated with gramicidin (hTHP-1 assay, 2% fetal bovine serum; Procedures 1-3); assay type: cell-based, human; settings: Homo sapiens, THP-1, Table B3; hTHP-1 assay containing 2% fetal bovine serum, gramicidin stimulation, IL-1β readout; read-out: hTHP-1 IC50
In short: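 PMA-primed THP-1 cells (20 ng/ml PMA, 16-18 h) in RPMI with 2% FBS were pre-incubated with compounds for 1 h, from 100 μM downward in 3-fold steps (0.37% DMSO final), then stimulated with 5 μM gramicidin for 2 h. IL-1β in the supernatant was quantified by HTRF.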

| SMILES | IC50 |
| --- | --- |
| CC(O)(CO)c1nc(CO)c(S(N)(=O)=NC(=O)Nc2c3c(cc4c2CC4)CCC3)s1 (stereo not shown) [Example 757, 2-(1,2-Dihydroxypropan-2-yl)-4-(hydroxymethyl)-N′-((2,4,5,6-tetrahydro-1H-cyclobuta[f]inden-3-yl)carbamoyl)thiazole-5-sulfonimidamide] | 40 to 200 nM |
| NS(=O)(=NC(=O)Nc1c2c(cc3c1CC3)CCC2)c1sc(CN2CCC2)cc1F (stereo not shown) [Example 718, 5-(Azetidin-1-ylmethyl)-3-fluoro-N′-((2,4,5,6-tetrahydro-1H-cyclobuta[f]inden-3-yl)carbamoyl)thiophene-2-sulfonimidamide] | 200 to 1000 nM |

same assay, conditions: Homo sapiens, THP-1, hTHP-1 assay containing 2% fetal bovine serum, Table B2, class symbols; read-out: IC50

| SMILES | IC50 |
| --- | --- |
| CC(C)(O)c1cnc([S@](N)(=O)=NC(=O)Nc2c3c(cc4c2C(O)CC4)CCC3)s1 (stereo partly drawn) [Example 510, (R)-N′-((3-hydroxy-1,2,3,5,6,7-hexahydro-s-indacen-4-yl)carbamoyl)-5-(2-hydroxypropan-2-yl)thiazole-2-sulfonimidamide] | 200 to 1000 nM |
| CC(C)(O)c1ncc([S@](N)(=O)=NC(=O)Nc2cc(CCCl)cc3c2CCC3)s1 [Example 514, (R)-N′-((6-(2-chloroethyl)-2,3-dihydro-1H-inden-4-yl)carbamoyl)-2-(2-hydroxypropan-2-yl)thiazole-5-sulfonimidamide] | 1000 to 5000 nM |
| CCNCc1ccc([S@](N)(=O)=NC(=O)Nc2c3c(cc4c2CCC4)CCC3)cc1 [Example 700, (R)-4-((ethylamino)methyl)-N′-((1,2,3,5,6,7-hexahydro-s-indacen-4-yl)carbamoyl)-benzenesulfonimidamide] | 1000 to 5000 nM |
| CC(C)(O)c1sc(S(N)(=O)=NC(=O)Nc2c3c(cc4c2CCC4)CCC3)cc1-c1ccccc1 (stereo not shown) [Compound 900] | 40 to 200 nM |
| CC(O)(CO)c1ncc(S(N)(=O)=NC(=O)Nc2c3c(cc4c2CCC4)CCC3)s1 (single isomer, unassigned) [Example 626] | 8 to 40 nM |
| NS(=O)(=NC(=O)Nc1c2c(cc3c1CCC3)CCC2)c1ccc([C@H]2CCCN2)s1 (stereo partly shown) [Compound 921e] | 200 to 1000 nM |
| NS(=O)(=NC(=O)Nc1c2c(cc3c1CCC3)CCC2)c1ccc(CN2CCC(F)(F)C2)cc1 (single isomer, unassigned) [Example 620, (R) or (S)-4-((3,3-difluoropymolidin-1-yl)methyl)-N′-((1,2,3,5,6,7-hexahydro-s-indacen-4-yl)carbamoyl) benzenesulfonimidamide] | 1000 to 5000 nM |

same assay, conditions: Homo sapiens, THP-1, hTHP-1 assay containing 2% fetal bovine serum, Table B2, given as bound; read-out: IC50

| SMILES | IC50 |
| --- | --- |
| CC(OC(F)F)c1ccc(S(N)(=O)=NC(=O)Nc2c3c(cc4c2CCC4)CCC3)cc1 (single isomer, unassigned) [Example 643] | > 30000 nM |
| CC(C)n1nc([S@](N)(=O)=NC(=O)Nc2c3c(cc4c2C(=O)CC4)CCC3)cc1C(C)(C)O [Compound 908a] | > 30000 nM |
| NS(=O)(=NC(=O)Nc1c2c(cc3c1CCC3)CCC2)c1ccc(C2CCCC2)nc1 (single isomer, unassigned) [Example 586, (S) or (R)-6-cyclopentyl-N′-((1,2,3,5,6,7-hexahydro-s-indacen-4-yl)carbamoyl)pyridine-3-sulfonimidamide] | > 30000 nM |
| CC(C)Cc1ccc(S(N)(=O)=NC(=O)Nc2c3c(cc4c2CCC4)CCC3)cc1 (single isomer, unassigned) [Example 618, (S) or (R)-N′-((1,2,3,5,6,7-hexahydro-s-indacen-4-yl)carbamoyl)-4-isobutylbenzene-sulfonimidamide] | > 30000 nM |
| COc1cc(CN(C)C)ccc1S(N)(=O)=NC(=O)Nc1c2c(cc3c1CCC3)CCC2 (single isomer, unassigned) [Example 607, (S) or (R)-4-((dimethylamino)methyl)-N′-((1,2,3,5,6,7-hexahydro-s-indacen-4-yl)carbamoyl)-2-methoxybenzene-sulfonimidamide] | > 30000 nM |

same assay, conditions: Table B1; hTHP-1 assay containing 2% fetal bovine serum, gramicidin stimulation, IL-1β readout; read-out: hTHP-1 IC50 (average)

| SMILES | IC50 |
| --- | --- |
| CN(C)S(=O)(=NC(=O)Nc1c2c(cc3c1CCC3)CCC2)c1cc(C(C)(C)O)cs1 (single isomer, unassigned) [Example 357, (R) or (S)-N′-((1,2,3,5,6,7-hexahydro-s-indacen-4-yl)-carbamoyl)-4-(2-hydroxy-propan-2-yl)-N,N-dimeth-ylthiophene-2-sulfonimid-amide] | 5000 to 30000 nM |

same assay, conditions: Table B3; hTHP-1 assay containing 2% fetal bovine serum, gramicidin stimulation, IL-1β readout; read-out: hTHP-1 IC50

| SMILES | IC50 |
| --- | --- |
| CN[C@H](c1ccc(S(N)(=O)=NC(=O)Nc2c3c(cc4c2CC4)CCC3)s1)C1CC1 (single isomer, unassigned) [Example 866, (S, R) or (R, R)-5-(cyclopropyl(methylamino)methyl)-N′-((2,4,5,6-tetrahydro-1H-cyclobuta[f]inden-3-yl)carbamoyl)thiophene-2-sulfonimidamide] | 8 to 40 nM |
| NS(=O)(=NC(=O)Nc1c2c(cc3c1CC3)CCC2)c1cc2c(s1)CCNC2 (single isomer, unassigned) [Example 716] | 8 to 40 nM |
| CNCc1csc(S(N)(=O)=NC(=O)Nc2c3c(cc4c2CC4)CCC3)c1F (single isomer, unassigned) [Example 871, (S) or (R) -3-fluoro-4-((methylamino)methyl)-N′-((2,4,5,6-tetrahydro-1H-cyclobuta[f]inden-3-yl)carbamoyl)thiophene-2-sulfonimidamide] | 1000 to 5000 nM |
| CC(C)(CO)c1ncc(S(N)(=O)=NC(=O)Nc2c3c(c(C#N)c4c2CCC4)CCC3)s1 (single isomer, unassigned) [Example 829, (S) or (R)-N′-((8-cyano-1,2,3,5,6,7-hexahydro-s-indacen-4-yl)carbamoyl)-2-(1-hydroxy-2-methylpropan-2-yl)thiazole-5-sulfonimidamide] | 1000 to 5000 nM |
| CC(NC1CCC1)c1ccc(S(N)(=O)=NC(=O)Nc2c3c(cc4c2CC4)CCC3)c(F)c1 (stereo not shown) [Example 846, (R/S, S)-4-(1-(cyclobutylamino)ethyl)-2-fIuoro-N′-((2,4,5,6-tetrahydro-1H-cyclobuta[f]inden-3-yl)carbamoyl)benzenesulfonimidamide] | 1000 to 5000 nM |

same assay, conditions: hTHP-1 assay containing 2% fetal bovine serum, Table B2, class symbols; read-out: IC50

| SMILES | IC50 |
| --- | --- |
| NS(=O)(=NC(=O)Nc1c2c(cc3c1CCC3)CCC2)c1ccc(C2CCCN2)cc1 (single isomer, unassigned) [Example 650, (R,S) or (S,S)-N′-((1,2,3,5,6,7-hexahydro-s-indacen-4-yl)carbamoyl)-4-(pyrrolidin-2-yl) benzenesulfonimidamide] | 5000 to 30000 nM |
| CN1CCc2sc(S(N)(=O)=NC(=O)Nc3c4c(cc5c3CCC5)CCC4)cc2C1 (single isomer, unassigned) [Example 687, (R) or (S)-N′-((1,2,3,5,6,7-hexahydro-s-indacen-4-yl)carbamoyl)-5-methyl-4,5,6,7-tetrahydrothieno [3,2-c]pyridine-2-sulfonimidamide] | 40 to 200 nM |
| CNCC1(c2ccc(S(N)(=O)=NC(=O)Nc3c4c(cc5c3CCC5)CCC4)c(F)c2)CC1 (single isomer, unassigned) [Example 528, (R) or (S)-2-fluoro-N′-((1,2,3,5,6,7-hexahydro-s-indacen-4-yl)carbamoyl)-4-(1-((methylamino)methyl)cyclopropyl) benzenesulfonimidamide] | 200 to 1000 nM |
| CNC(C)(C)c1ccc(S(N)(=O)=NC(=O)Nc2c3c(cc4c2CCC4)CCC3)cc1 (single isomer, unassigned) [Example 602, (R) or (S)-N′-((1,2,3,5,6,7-hexahydro-s-indacen-4-yl)carbamoyl)-4-(2-(methylamino)propan-2-yl) benzenesuIfonimidamide] | 200 to 1000 nM |
| CN(C)C(c1ccc(S(N)(=O)=NC(=O)Nc2c3c(cc4c2CCC4)CCC3)cc1)C1CC1 (single isomer, unassigned) [Example 662] | 200 to 1000 nM |
| CC(C)(O)c1ncc(S(N)(=O)=NC(=O)Nc2c3c(c(Cl)c4c2CCC4)CCC3)s1 (single isomer, unassigned) [Example 596, (S) or (R)-N′-((8-chloro-1,2,3,5,6,7-hexahydro-s-indacen-4-yl)carbamoyl)-2-(2-hydroxypropan-2-yl)thiazole-5-sulfonimidamide] | 1000 to 5000 nM |
| CC(O)(CO)c1ncc(S(N)(=O)=NC(=O)Nc2c3c(c(C#N)c4c2CCC4)CCC3)s1 (single isomer, unassigned) [Example 634] | 200 to 1000 nM |

same assay, conditions: hTHP-1 assay containing 2% fetal bovine serum, Table B2, given as bound; read-out: IC50

| SMILES | IC50 |
| --- | --- |
| NS(=O)(=NC(=O)Nc1c2c(cc3c1CCC3)CCC2)c1ccccc1 (single isomer, unassigned) [Example 613, (S) or (R)-N′-((1,2,3,5,6,7-hexahydro-s-indacen-4-yl)carbamoyl) benzenesulfonimidamide] | > 30000 nM |
| NS(=O)(=NC(=O)Nc1c2c(cc3c1CCC3)CCC2)c1ccc(C2CCNC2)cc1F (single isomer, unassigned) [Example 623, (S,S) or (R,S)-2-fluoro-N′-((1,2,3,5,6,7-hexahydro-s-indacen-4-yl)carbamoyl)-4-(- pyrrolidin-3-yl) benzenesulfonimidamide] | > 30000 nM |
| CN(C)C(c1ccc(S(N)(=O)=NC(=O)Nc2c3c(cc4c2CCC4)CCC3)cc1)C(F)F (single isomer, unassigned) [Example 645, (S,S) or (R,S)-4-(-1-(dimethylamino)-2,2-difluoroethyl)-N′-((1,2,3,5,6,7-hexahydro-s-indacen-4-yl)carbamoyl) benzenesulfonimidamide] | > 30000 nM |
| CC(C)(O)c1cnc(S(N)(=O)=NC(=O)Nc2c3c(cc4c2CCC4O)CCC3)s1 (single isomer, unassigned) [Example 656, (S,S) or (S,R)-N′-((1-hydroxy-1,2,3,5,6,7-hexahydro-5-indacen-4-yl)carbamoyl)-5-(2-hydroxypropan-2-yl)thiazole-2-sulfonimidamide] | > 30000 nM |
